From patent US10780092B2, “Fused pyrazine derivatives useful as soluble guanylate cyclase stimulators” (Merck Sharp & Dohme Corp., priority 2016, dated 2020)

How the values were obtained:
sGC α1/β1 heterodimer = sGC α1/β1 heterodimer (Homo sapiens (Human), UniProt Q02108+Q02153); assay: Cell-based sGC functional assay (CASA assay), cGMP by HTRF; conditions: CHO-K1/sGC cells; for Emax: CHO-K1, cGMP production as percentage of maximum of compound A (set to 100%), read-out: % Activation; for EC50: inflection point of cGMP production, 4P fit, read-out: IP
How it was run: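 cGMP made in CHO-K1/sGC (human α1/β1) cells is read by HTRF after compound treatment for 1 hr at 37° C, following 30 min at 25° C with or without 1 μM DETA-NO; IBMX 0.5 mM present. Values are % of standard compound maximum; 4P fit.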

[1] = target: human recombinant sGC enzyme (Homo sapiens (Human), UniProt Q02108+Q02153); assay: SEC competition binding assay with [3H] Compound B radioligand; conditions: displacement of 1.6 nM [3H] Compound B, 24 h at 37° C.
How it was run: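 Competition format: [3H] Compound B (1.6 nM) displaced from human recombinant sGC over 24 h at 37° C. in triethanolamine pH 7.4 buffer with MgCl2, BSA, DTT, 300 μM DETA/NO and 400 μM GTP (1% DMSO). Gel-filtration eluates counted by liquid scintillation; 1 μM Compound B defined non-specific binding; Ki by one-site fit.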

Row | SMILES | Emax (sGC α1/β1 heterodimer) | EC50 (sGC α1/β1 heterodimer) | Ki [1] | % Activation (sGC α1/β1 heterodimer; cGMP production as percentage of maximum of compound A (set to 100%))
1 | Cc1cccc(Cc2nc(-c3nc(N)c4c(n3)NC(=O)C4(C)c3cccc(O)c3)cn3ccnc23)c1 (stereo not drawn) [Example 122-B, 4-Amino-5-(3-hydroxy-phenyl)-5-methyl-2-{8-[(3-methylphenyl)methyl]-imidazo[1,2-a]pyrazin-6-yl}-5,7-dihydro-6H-pyrrolo-[2,3-d]pyrimidin-6-one] | 106% | 1.82 µM | 0.0156 µM | –
2 | CC1(c2cccc(O)c2)C(=O)Nc2nc(-c3cn4ccnc4c(Cc4ccccc4)n3)nc(N)c21 (stereo not drawn) [Example 123-B, 4-Amino-2-(8-benzyl-imidaxol[1,2-a]pyrazin-6-yl)-5-(3-hydroxyphenyl)-5-methyl-5,7-dihydro-6H-pyrrolo[2,3-d]pyrimidin-6-one] | 107% | 0.768 µM | 0.000372 µM | –
3 | CC1(c2ccc(O)c(F)c2)C(=O)Nc2nc(-c3cn4ccnc4c(Cc4cccc(F)c4)n3)nc(N)c21 (stereo not drawn) [Example 125-B, 4-Amino-5-(3-fluoro-4-hydroxyphenyl)-2-{8-[(3-fluorophenyl)methyl]-imidazo[1,2-a]pyrazin-6-yl}-5-methyl-5,7-dihydro-6H-pyrrolo[2,3-d]-pyrimidin-6-one] | 164% | 0.601 µM | 0.000508 µM | –
4 | Cc1cccc(Cc2nc(-c3nc(N)c4c(n3)NC(=O)C4(C)c3ccc(O)c(F)c3)cn3ccnc23)c1 (stereo not drawn) [Example 127-B, 4-Amino-5-(3-fluoro-4-hydroxyphenyl)-5-methyl-2-{8-[(3-methylphenyl)-methyl]imidazo[1,2-a]-pyrazin-6-yl}-5,7-dihydro-6H-pyrrolo[2,3-d]-pyrimidin-6-one] | 118% | 9.98 µM | 0.00972 µM | –
5 | CC1(c2ccc(O)c(F)c2)C(=O)Nc2nc(-c3cn4ccnc4c(Cc4ccccc4)n3)nc(N)c21 (stereo not drawn) [Example 128-B, 4-Amino-2-(8-benzyl-imidazo[1,2-a]pyrazin-6-yl)-5-(3-fluoro-4-hydroxyphenyl)-5-methyl-5,7-dihydro-6H-pyrrolo[2,3-d]-pyrimidin-6-one] | 137% | 1.2 µM | 0.000646 µM | –
6 | CC1(c2ccc(F)c(O)c2)C(=O)Nc2nc(-c3cn4ccnc4c(CCC(F)(F)C(F)(F)F)n3)nc(N3CC(O)(C(F)(F)F)C3)c21 (stereo not drawn) [Example 129-B, 5-(4-Fluoro-3-hydroxyphenyl)-4-(3-hydroxy-3-(trifluoromethyl)azetidin-1-yl)-5-methyl-2-(8-(3,3,4,4,4-pentafluorobutyl)imidazo[1,2-a]pyrazin-6-yl)-5,7-dihydro-6H-pyrrolo[2,3-d]pyrimidin-6-one] | 84% | 1.89 µM | 0.002 µM | –
7 | CC1(c2ccc(O)c(F)c2)C(=O)Nc2nc(-c3cn4ccnc4c(CCC(F)(F)C(F)(F)F)n3)nc(N3CC(O)(C(F)(F)F)C3)c21 (stereo not drawn) [Example 130-A, 5-(3-Fluoro-4-hydroxyphenyl)-4-(3-hydroxy-3-(trifluoromethyl)azetidin-1-yl)-5-methyl-2-(8-(3,3,4,4,4-pentafluorobutyl)imidazo[1,2-a]pyrazin-6-yl)-5,7-dihydro-6H-pyrrolo[2,3-d]pyrimidin-6-one] | 81% | 1.92 µM | 0.00715 µM | –
8 | CC1(c2cccc(O)c2)C(=O)Nc2nc(-c3cn4ccnc4c(Cc4ccc(F)cc4)n3)nc(N3CCC(F)(F)CC3)c21 (stereo not drawn) [Example 135-B, 4-(4,4-Difluoropiperidin-1-yl)-2-{8-[(4-fluoro-phenyl)methyl]imidazo-[1,2-a]-pyrazin-6-yl}-5-(3-hydroxyphenyl)-5-methyl-5,7-dihydro-6H-pyrrolo[2,3-d]pyrimidin-6-one] | 103% | 0.966 µM | 0.00401 µM | –
9 | CC1(c2ccc(Cl)c(O)c2)C(=O)Nc2nc(-c3cn4ccnc4c(Cc4ccc(F)cc4)n3)nc(N3CCC(F)(F)CC3)c21 (stereo not drawn) [Example 136-A, 5-(4-Chloro-3-hydroxy-phenyl)-4-(4,4-difluoro-piperidin-1-yl)-2-{8-[(4-fluorophenyl)methyl]-imidazo[1,2-a]pyrazin-6-yl}-5-methyl-5,7-dihydro-6H-pyrrolo[2,3-d]-pyrimidin-6-one] | 66% | 0.511 µM | 0.00157 µM | –
10 | CC1(c2ccc(Cl)c(O)c2)C(=O)Nc2nc(-c3cn4ncnc4c(CCC(F)(F)C(F)(F)F)n3)nc(N3CCC(C(F)(F)F)CC3)c21 (stereo not drawn) [Example 137-A, 5-(4-Chloro-3-hydroxy-phenyl)-5-methyl-2-(8-(3,3,4,4,4-pentafluoro-butyl)-[1,2,4]triazolo-[1,5-a]pyrazin-6-yl)-4-(4-(trifluoromethyl)-piperidin-1-yl)-5,7-dihydro-6H-pyrrolo-[2,3-d]pyrimidin-6-one] | 99% | 0.744 µM | 0.00263 µM | –
11 | CC1(c2ccc(Cl)c(O)c2)C(=O)Nc2nc(-c3cn4c(N)cnc4c(Cc4cccc(F)c4)n3)nc(N)c21 (stereo not drawn) [Example 140-A, 4-Amino-2-(3-amino-8-[(3-fluorophenyl)methyl]imidazo[1,2-a]pyrazin-6-yl)-5-(4-chloro-3-hydroxyphenyl)-5-methyl-5,7-dihydro-6H-pyrrolo[2,3-d]pyrimidin-6-one] | 101% | 0.816 µM | 0.000827 µM | –
12 | CC1(c2cc(O)c(Cl)cn2)C(=O)Nc2nc(-c3cn4ccnc4c(CC4CCCC4)n3)nc(N)c21 (stereo not drawn) [Example 141-B, 4-amino-5-(5-chloro-4-hydroxypyridin-2-yl)-2-(8-(cyclopentylmethyl)-imidazo[1,2-a]pyrazin-6-yl)-5-methyl-5,7-dihydro-6H-pyrrolo-[2,3-d]pyrimidin-6-one] | 99% | 1.35 µM | 0.000706 µM | –
13 | CC1(c2cc(O)c(C#N)c(Cl)c2)C(=O)Nc2nc(-c3cn4ccnc4c(CC4CCCCC4)n3)nc(N)c21 (stereo not drawn) [Example 142-A, 4-(4-amino-2-{8-(cyclohexylmethyl)-imidazo[1,2-a]pyrazin-6-yl}-5-methyl-6-oxo-6,7-dihydro-5H-pyrrolo-[2,3-d]pyrimidin-5-yl)-2-chloro-6-hydroxy-benzonitrile] | 74% | 3.53 µM | 0.00114 µM | –

These reach a lower EC50 (sGC α1/β1 heterodimer). Values come first.

Row | Emax (sGC α1/β1 heterodimer) | EC50 (sGC α1/β1 heterodimer) | Ki [1] | % Activation (sGC α1/β1 heterodimer; cGMP production as percentage of maximum of compound A (set to 100%)) | SMILES
14 | 89% | 0.427 µM | 0.000884 µM | – | CC1(c2ccc(Cl)c(O)c2)C(=O)Nc2nc(-c3cn4ccnc4c(Cc4cccc(F)c4)n3)nc(NCC(O)C(F)(F)F)c21 (stereo not drawn) [Example 131-AA, 5-(4-Chloro-3-hydroxy-phenyl)-2-{8-[(3-fluoro-phenyl)methyl]imidazo-[1,2-a]pyrazin-6-yl}-5-methyl-4-[(3,3,3-trifluoro-2-hydroxypropyl)amino]-5,7-dihydro-6H-pyrrolo-[2,3-d]pyrimidin-6-one]
15 | 206% | 0.391 µM | 0.0011 µM | – | CC1(c2ccc(O)c(F)c2)C(=O)Nc2nc(-c3cn4ccnc4c(Cc4cccc(Cl)c4)n3)nc(N)c21 (stereo not drawn) [Example 126-B, 4-Amino-2-{8-[(3-chlorophenyl)methyl]-imidazo[1,2-a]pyrazin-6-yl}-5-(3-fluoro-4-hydroxy-phenyl)-5-methyl-5,7-dihydro-6H-pyrrolo-[2,3-d]pyrimidin-6-one]
16 | 68% | 0.349 µM | 0.00354 µM | – | CC1(c2ccc(Cl)c(O)c2)C(=O)Nc2nc(-c3cn4ncnc4c(CCC(F)(F)C(F)(F)F)n3)nc(NCCCC(F)(F)F)c21 (stereo not drawn) [Example 139-A, 5-(4-Chloro-3-hydroxy-phenyl)-5-methyl-2-(8-(3,3,4,4,4-pentafluoro-butyl)-[1,2,4]triazolo-[1,5-a]pyrazin-6-yl)-4-((4,4,4-trifluorobutyl)-amino)-5,7-dihydro-6H-pyrrolo[2,3-d]pyrimidin-6-one]
17 | 102% | 0.333 µM | 0.000592 µM | – | CN1CCN(c2nc(-c3cn4ccnc4c(Cc4ccc(F)cc4)n3)nc3c2C(C)(c2ccc(Cl)c(O)c2)C(=O)N3)CC1 (stereo not drawn) [Example 134-A, 5-(4-Chloro-3-hydroxy-phenyl)-2-{8-[(4-fluoro-phenyl)methyl]imidazo-[1,2-a]pyrazin-6-yl}-5-methyl-4-(4-methyl-piperazin-1-yl)-5,7-dihydro-6H-pyrrolo-[2,3-d]pyrimidin-6-one]
18 | – | 0.292 µM | 0.000347 µM | 96% | CC1(c2ccc(Cl)c(O)c2)C(=O)Nc2nc(-c3cn4ccnc4c(Cc4cccc(F)c4)n3)nc(NCC(O)C(F)(F)F)c21 (stereo not drawn) [Example 131-AB, 5-(4-Chloro-3-hydroxyphenyl)-2-{8-[(3-fluorophenyl)methyl]imidazo[1,2-a]pyrazin-6-yl}-5-methyl-4-[(3,3,3-trifluoro-2-hydroxypropyl)amino]-5,7-dihydro-6H-pyrrolo[2,3-d]pyrimidin-6-one]
19 | 113% | 0.224 µM | 0.00263 µM | – | CC1(c2cccc(O)c2)C(=O)Nc2nc(-c3cn4ccnc4c(Cc4cccc(Cl)c4)n3)nc(N)c21 (stereo not drawn) [Example 124-B, 4-Amino-2-{8-[(3-chlorophenyl)methyl]-imidazo[1,2-a]pyrazin-6-yl}-5-(3-hydroxyphenyl)-5-methyl-5,7-dihydro-6H-pyrrolo[2,3-d]pyrimidin-6-one]
20 | 65% | 0.169 µM | 0.00462 µM | – | CC1(c2ccc(Cl)c(O)c2)C(=O)Nc2nc(-c3cn4ncnc4c(CCC(F)(F)C(F)(F)F)n3)nc(NCCC(F)(F)F)c21 (stereo not drawn) [Example 138-A, 5-(4-Chloro-3-hydroxy-phenyl)-5-methyl-2-(8-(3,3,4,4,4-pentafluoro-butyl)-[1,2,4]triazolo-[1,5-a]pyrazin-6-yl)-4-((3,3,3-trifluoropropyl)-amino)-5,7-dihydro-6H-pyrrolo[2,3-d]pyrimidin-6-one]
